# Source: ChEMBL document CHEMBL2074376, “Differential regulation of mdr genes in response to 2-acetylaminofluorene treatment in cultured rat and human hepatocytes” (Carcinogenesis, 1996)
# Legend:
# [1] = target: ATP-dependent translocase ABCB1 (Homo sapiens, UniProt P08183); experiment: (§1) TP_TRANSPORTER: Northern blot from primary hepatocytes; type: functional, cell-based, Hepatocyte
# [2] = target: ATP-dependent translocase ABCB1 (Rattus norvegicus, UniProt P43245); experiment: as §1; type: functional, cell-based, Hepatocyte
# ATP-dependent translocase ABCB1 (Rattus norvegicus, UniProt P43245), sequence (P43245 whole entry): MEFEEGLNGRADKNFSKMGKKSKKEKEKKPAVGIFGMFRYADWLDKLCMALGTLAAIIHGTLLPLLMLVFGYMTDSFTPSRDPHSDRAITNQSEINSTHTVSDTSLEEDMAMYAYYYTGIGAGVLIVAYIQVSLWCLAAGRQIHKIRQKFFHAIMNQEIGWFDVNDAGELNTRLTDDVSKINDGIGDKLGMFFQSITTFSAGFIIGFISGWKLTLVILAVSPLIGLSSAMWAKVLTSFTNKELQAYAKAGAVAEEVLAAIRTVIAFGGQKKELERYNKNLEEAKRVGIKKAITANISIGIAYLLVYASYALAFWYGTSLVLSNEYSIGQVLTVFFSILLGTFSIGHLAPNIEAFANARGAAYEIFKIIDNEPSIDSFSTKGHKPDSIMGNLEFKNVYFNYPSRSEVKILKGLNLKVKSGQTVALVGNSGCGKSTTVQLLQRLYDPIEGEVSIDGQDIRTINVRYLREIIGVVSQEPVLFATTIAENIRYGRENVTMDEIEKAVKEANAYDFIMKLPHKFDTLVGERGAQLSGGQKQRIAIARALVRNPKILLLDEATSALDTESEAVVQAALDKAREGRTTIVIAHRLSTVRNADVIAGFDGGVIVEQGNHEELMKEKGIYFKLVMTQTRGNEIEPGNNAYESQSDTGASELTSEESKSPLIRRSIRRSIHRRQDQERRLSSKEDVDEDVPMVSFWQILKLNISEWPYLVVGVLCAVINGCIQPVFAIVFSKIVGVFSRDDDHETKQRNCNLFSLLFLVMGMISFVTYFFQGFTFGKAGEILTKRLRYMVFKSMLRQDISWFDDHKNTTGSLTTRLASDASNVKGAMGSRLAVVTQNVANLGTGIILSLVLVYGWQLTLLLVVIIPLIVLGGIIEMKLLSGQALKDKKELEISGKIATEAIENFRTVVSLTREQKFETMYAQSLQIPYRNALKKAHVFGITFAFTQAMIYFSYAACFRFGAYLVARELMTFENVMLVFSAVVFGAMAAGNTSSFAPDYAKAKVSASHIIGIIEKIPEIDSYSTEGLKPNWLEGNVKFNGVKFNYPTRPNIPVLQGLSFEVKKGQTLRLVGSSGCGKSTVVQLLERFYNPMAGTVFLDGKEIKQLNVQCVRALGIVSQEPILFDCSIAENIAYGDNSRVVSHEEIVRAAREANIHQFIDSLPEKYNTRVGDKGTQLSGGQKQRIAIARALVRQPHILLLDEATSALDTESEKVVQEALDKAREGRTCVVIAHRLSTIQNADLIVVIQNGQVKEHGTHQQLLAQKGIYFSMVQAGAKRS
# ATP-dependent translocase ABCB1 (Homo sapiens, UniProt P08183), sequence (P08183 whole entry): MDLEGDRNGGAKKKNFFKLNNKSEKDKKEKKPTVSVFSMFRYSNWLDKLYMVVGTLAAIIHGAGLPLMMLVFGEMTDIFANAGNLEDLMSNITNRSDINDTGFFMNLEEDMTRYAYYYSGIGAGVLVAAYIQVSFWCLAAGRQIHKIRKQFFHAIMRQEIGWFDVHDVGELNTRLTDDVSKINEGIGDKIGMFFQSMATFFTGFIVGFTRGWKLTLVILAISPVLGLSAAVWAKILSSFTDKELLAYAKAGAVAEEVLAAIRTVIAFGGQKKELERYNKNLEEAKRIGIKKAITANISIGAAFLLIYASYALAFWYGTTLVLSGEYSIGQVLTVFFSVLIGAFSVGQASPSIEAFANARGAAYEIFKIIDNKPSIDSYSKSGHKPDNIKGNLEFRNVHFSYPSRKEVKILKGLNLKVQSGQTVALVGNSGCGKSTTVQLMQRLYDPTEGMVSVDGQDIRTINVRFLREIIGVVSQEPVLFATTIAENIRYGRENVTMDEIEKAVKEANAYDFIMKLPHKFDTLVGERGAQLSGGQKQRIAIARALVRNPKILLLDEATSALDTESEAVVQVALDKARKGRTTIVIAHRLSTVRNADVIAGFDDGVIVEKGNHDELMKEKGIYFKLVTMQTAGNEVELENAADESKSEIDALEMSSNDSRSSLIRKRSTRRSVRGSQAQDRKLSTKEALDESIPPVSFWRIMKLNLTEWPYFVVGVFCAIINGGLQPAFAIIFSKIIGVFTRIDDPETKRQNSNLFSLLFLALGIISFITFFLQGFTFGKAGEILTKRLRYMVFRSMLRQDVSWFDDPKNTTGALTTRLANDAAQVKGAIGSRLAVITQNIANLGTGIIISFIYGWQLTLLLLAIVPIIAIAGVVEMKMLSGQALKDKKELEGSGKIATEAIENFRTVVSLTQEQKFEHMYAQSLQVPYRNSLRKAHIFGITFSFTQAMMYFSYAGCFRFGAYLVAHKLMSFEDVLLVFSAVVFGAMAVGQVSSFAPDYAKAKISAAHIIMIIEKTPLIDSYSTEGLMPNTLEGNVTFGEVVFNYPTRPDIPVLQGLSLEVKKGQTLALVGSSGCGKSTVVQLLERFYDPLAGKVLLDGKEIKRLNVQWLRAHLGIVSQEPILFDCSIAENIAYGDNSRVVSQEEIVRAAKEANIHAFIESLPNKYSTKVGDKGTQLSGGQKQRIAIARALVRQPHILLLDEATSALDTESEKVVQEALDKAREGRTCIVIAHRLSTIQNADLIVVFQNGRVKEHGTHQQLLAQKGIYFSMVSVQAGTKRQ
structure (smiles),measurement,setting,value
CC(=O)Nc1ccc2c(c1)Cc1ccccc1-2 [2-ACETYLAMINOFLUORENE],Activity,[1],is not an inducer [-]
same,Activity,[2],inducer [+]
